Reference: paper PMC7265341, “Quantifying CDK inhibitor selectivity in live cells” (Nature Communications, 2020)
Like-named read-outs stand apart in the source and are kept apart here.

Legend:
CDK1/Cyclin E1 = CDK1/Cyclin E1 (Homo sapiens, UniProt P06493); test: NanoBRET live-cell target engagement, CDK1-NanoLuc/Cyclin E1 in HEK-293; format: binding; settings: 10µM, read-out: CDK1/E1 Inhibition at 10µM (%)
CDK2/Cyclin E1 = CDK2/Cyclin E1 (Homo sapiens, UniProt P24941); test: NanoBRET live-cell target engagement, CDK2-NanoLuc/Cyclin E1 in HEK-293; format: binding; settings: 10µM, read-out: CDK2/E1 Inhibition at 10µM (%)
CDK3/Cyclin E1 = CDK3/Cyclin E1 (Homo sapiens, UniProt Q00526); test: NanoBRET live-cell target engagement, CDK3-NanoLuc/Cyclin E1 in HEK-293; format: binding; settings: 10µM, read-out: CDK3/E1 Inhibition at 10µM (%)
CDK4/Cyclin D1 = CDK4/Cyclin D1 (Homo sapiens, UniProt P11802); test: NanoBRET live-cell target engagement, NanoLuc-CDK4/Cyclin D1 in HEK-293; format: binding; settings: 10µM, read-out: CDK4/D1 Inhibition at 10µM (%)
CDK5/CDK5R1 = CDK5/CDK5R1 (Homo sapiens, UniProt Q00535); test: NanoBRET live-cell target engagement, CDK5-NanoLuc/CDK5R1 in HEK-293; format: binding; settings: 10µM, read-out: CDK5/CDK5R1 Inhibition at 10µM (%)
CDK7 = CDK7 (Homo sapiens, UniProt P50613); test: NanoBRET live-cell target engagement, NanoLuc-CDK7 in HEK-293; format: binding; settings: read-out: CDK7 Inhibition at 10µM (%), 10µM
CDK8/Cyclin C = CDK8/Cyclin C (Homo sapiens, UniProt P49336); test: NanoBRET live-cell target engagement, NanoLuc-CDK8/Cyclin C in HEK-293; format: binding; settings: 10µM, read-out: CDK8/C Inhibition at 10µM (%)
CDK9/Cyclin K = CDK9/Cyclin K (Homo sapiens, UniProt P50750); test: NanoBRET live-cell target engagement, NanoLuc-CDK9/Cyclin K in HEK-293; format: binding; settings: 10µM, read-out: CDK9/K Inhibition at 10µM (%)
CDK11A/Cyclin L2 = target: T1, CDK11A/Cyclin L2 (Homo sapiens, UniProt Q9UQ88); test: NanoBRET live-cell target engagement, CDK11A-NanoLuc/Cyclin L2 in HEK-293; format: binding; settings: 10µM, read-out: CDK11a/L2 Inhibition at 10µM (%)
T1 sequence (Q9UQ88 1-783): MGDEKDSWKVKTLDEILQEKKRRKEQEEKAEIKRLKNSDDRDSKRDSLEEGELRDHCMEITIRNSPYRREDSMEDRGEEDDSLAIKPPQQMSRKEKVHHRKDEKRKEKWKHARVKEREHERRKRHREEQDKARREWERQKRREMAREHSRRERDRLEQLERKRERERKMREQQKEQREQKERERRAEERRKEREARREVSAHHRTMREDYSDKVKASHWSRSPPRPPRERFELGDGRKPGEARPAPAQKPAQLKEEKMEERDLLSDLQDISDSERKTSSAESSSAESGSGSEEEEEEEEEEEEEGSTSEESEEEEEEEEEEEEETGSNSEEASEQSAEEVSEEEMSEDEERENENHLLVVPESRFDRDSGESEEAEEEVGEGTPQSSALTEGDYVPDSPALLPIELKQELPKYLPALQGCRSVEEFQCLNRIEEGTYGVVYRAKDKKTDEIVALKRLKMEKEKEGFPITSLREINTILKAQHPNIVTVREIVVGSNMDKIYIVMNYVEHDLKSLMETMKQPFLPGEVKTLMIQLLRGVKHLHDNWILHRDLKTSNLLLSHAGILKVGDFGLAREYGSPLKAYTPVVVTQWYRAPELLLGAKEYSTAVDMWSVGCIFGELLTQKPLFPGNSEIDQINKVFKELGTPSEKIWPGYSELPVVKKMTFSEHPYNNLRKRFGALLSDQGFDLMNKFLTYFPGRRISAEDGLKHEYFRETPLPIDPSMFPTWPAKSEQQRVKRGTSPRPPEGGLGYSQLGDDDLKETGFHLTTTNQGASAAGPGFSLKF

CDK11B/Cyclin L2 = CDK11B/Cyclin L2 (Homo sapiens, UniProt P21127); test: NanoBRET live-cell target engagement, CDK11B-NanoLuc/Cyclin L2 in HEK-293; format: binding; settings: 10µM, read-out: CDK11b/L2 Inhibition at 10µM (%)
CDK12/Cyclin K = CDK12/Cyclin K (Homo sapiens, UniProt Q9NYV4); test: NanoBRET live-cell target engagement, CDK12-NanoLuc/Cyclin K in HEK-293; format: binding; settings: for inhibition at 10 µM: read-out: CDK12/K Inhibition at 10µM (%)
CDK13/Cyclin K = CDK13/Cyclin K (Homo sapiens, UniProt Q14004); test: NanoBRET live-cell target engagement, CDK13-NanoLuc/Cyclin K in HEK-293; format: binding; settings: for inhibition at 10 µM: read-out: CDK13/K Inhibition at 10µM (%)
CDK14/Cyclin Y = CDK14/Cyclin Y (Homo sapiens, UniProt O94921); test: NanoBRET live-cell target engagement, CDK14-NanoLuc/Cyclin Y in HEK-293; format: binding; settings: 10µM, read-out: CDK14/Y Inhibition at 10µM (%)
CDK15/Cyclin Y = CDK15/Cyclin Y (Homo sapiens, UniProt Q96Q40); test: NanoBRET live-cell target engagement, NanoLuc-CDK15/Cyclin Y in HEK-293; format: binding; settings: 10µM, read-out: CDK15/Y Inhibition at 10µM (%)
CDK16/Cyclin Y = CDK16/Cyclin Y (Homo sapiens, UniProt Q00536); test: NanoBRET live-cell target engagement, CDK16-NanoLuc/Cyclin Y in HEK-293; format: binding; settings: 10µM, read-out: CDK16/Y Inhibition at 10µM (%)
CDK17/Cyclin Y = CDK17/Cyclin Y (Homo sapiens, UniProt Q00537); test: NanoBRET live-cell target engagement, CDK17-NanoLuc/Cyclin Y in HEK-293; format: binding; settings: 10µM, read-out: CDK17/Y Inhibition at 10µM (%)
CDK20/Cyclin H = CDK20/Cyclin H (Homo sapiens, UniProt Q8IZL9); test: NanoBRET live-cell target engagement, NanoLuc-CDK20/Cyclin H in HEK-293; format: binding; settings: 10µM, read-out: CDK20/H Inhibition at 10µM (%)
CDK19/Cyclin C = CDK19/Cyclin C (Homo sapiens, UniProt Q9BWU1); test: NanoBRET live-cell target engagement, NanoLuc-CDK19/Cyclin C in HEK-293; settings: read-out: CDK19/C Inhibition at 10µM (%), 10µM
CDK10/Cyclin L2 = CDK10/Cyclin L2 (Homo sapiens, UniProt Q15131); test: NanoBRET live-cell target engagement, CDK10-NanoLuc/Cyclin L2 in HEK-293; settings: read-out: CDK10/L2 Inhibition at 10µM (%), 10µM

Chain of CDK1/Cyclin E1 (P06493 whole entry): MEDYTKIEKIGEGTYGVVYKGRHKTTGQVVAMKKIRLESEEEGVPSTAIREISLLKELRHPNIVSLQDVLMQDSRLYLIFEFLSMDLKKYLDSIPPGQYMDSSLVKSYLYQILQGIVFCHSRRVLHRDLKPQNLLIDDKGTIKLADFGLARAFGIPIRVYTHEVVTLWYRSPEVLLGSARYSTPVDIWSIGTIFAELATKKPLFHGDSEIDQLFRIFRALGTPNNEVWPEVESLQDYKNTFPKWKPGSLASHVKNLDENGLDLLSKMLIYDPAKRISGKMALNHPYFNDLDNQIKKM
Chain of CDK1/Cyclin E1 (P24864 whole entry partner): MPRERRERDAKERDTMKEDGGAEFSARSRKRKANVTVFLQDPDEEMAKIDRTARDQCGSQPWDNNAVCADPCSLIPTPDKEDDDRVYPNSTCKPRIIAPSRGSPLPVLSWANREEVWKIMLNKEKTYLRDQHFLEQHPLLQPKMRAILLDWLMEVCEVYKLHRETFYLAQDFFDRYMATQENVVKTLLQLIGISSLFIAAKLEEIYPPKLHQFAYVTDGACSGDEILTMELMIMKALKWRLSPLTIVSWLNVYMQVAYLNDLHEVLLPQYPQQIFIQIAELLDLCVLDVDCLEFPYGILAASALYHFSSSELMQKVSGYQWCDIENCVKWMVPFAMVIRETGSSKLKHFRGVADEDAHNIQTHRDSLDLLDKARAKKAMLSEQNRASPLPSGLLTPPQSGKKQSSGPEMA
Chain of CDK13/Cyclin K (O75909 whole entry): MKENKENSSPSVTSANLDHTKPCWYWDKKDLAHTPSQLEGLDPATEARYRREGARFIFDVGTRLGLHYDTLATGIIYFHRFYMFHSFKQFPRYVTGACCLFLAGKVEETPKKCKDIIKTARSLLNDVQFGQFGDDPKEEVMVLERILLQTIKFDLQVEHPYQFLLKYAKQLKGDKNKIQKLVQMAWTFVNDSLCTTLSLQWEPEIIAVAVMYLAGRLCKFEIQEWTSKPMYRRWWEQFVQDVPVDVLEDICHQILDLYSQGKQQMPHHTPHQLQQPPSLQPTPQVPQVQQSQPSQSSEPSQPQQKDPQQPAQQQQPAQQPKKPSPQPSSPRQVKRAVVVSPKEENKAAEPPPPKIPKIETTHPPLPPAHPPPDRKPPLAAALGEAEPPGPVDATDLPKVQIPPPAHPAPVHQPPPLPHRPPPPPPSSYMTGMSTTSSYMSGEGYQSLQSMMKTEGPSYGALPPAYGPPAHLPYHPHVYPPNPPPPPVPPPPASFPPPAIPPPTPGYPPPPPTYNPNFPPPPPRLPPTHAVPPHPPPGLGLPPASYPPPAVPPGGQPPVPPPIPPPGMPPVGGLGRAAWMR
Chain of CDK13/Cyclin K (Q14004 other isoform, or with tags, fused parts or gaps): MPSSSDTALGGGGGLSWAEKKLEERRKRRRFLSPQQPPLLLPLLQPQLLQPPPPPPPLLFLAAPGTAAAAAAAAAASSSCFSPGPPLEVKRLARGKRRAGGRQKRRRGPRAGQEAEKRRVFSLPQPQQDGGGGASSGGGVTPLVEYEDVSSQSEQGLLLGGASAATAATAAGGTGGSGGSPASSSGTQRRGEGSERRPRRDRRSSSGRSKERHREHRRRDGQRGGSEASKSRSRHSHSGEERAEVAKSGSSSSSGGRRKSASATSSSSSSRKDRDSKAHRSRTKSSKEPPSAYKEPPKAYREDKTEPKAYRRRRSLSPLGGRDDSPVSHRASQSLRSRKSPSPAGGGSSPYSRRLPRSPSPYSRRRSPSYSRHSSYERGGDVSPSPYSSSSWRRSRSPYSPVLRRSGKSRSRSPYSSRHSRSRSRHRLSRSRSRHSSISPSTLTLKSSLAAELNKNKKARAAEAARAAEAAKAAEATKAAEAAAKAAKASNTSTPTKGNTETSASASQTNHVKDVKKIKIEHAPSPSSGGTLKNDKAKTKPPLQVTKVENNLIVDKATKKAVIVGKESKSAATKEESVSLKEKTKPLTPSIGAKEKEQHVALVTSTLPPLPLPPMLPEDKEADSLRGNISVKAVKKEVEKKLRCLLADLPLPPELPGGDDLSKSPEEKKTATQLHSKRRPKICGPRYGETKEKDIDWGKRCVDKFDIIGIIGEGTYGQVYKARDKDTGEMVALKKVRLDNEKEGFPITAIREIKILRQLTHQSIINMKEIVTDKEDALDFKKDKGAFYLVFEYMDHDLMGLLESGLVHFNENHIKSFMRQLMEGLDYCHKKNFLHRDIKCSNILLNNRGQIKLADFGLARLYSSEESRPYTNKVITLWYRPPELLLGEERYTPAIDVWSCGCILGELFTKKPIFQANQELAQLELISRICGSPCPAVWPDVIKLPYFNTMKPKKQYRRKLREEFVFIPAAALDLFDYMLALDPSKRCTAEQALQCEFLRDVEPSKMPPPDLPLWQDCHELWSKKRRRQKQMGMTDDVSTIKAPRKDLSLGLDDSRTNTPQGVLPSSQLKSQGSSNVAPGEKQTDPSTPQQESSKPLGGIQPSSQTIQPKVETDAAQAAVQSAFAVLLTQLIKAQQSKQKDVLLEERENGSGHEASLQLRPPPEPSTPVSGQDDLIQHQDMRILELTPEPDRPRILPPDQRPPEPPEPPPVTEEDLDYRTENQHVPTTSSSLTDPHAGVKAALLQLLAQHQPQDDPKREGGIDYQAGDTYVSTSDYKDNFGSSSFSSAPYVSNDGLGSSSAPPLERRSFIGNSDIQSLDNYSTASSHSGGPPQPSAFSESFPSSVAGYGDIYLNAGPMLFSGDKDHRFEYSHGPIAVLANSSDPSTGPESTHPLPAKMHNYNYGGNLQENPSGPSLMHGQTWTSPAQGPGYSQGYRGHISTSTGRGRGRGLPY
Chain of CDK15/Cyclin Y (Q96Q40 whole entry): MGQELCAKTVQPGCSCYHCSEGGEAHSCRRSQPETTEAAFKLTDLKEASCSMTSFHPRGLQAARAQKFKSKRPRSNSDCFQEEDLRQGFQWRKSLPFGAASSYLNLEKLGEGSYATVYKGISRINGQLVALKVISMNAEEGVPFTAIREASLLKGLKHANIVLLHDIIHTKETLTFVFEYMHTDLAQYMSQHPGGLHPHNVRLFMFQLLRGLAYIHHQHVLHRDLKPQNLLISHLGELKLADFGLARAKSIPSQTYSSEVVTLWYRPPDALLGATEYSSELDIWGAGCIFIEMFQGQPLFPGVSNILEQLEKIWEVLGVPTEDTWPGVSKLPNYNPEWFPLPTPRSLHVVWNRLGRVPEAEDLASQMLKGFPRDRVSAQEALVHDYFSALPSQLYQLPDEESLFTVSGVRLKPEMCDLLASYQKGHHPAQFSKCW
Chain of CDK15/Cyclin Y (Q8ND76 whole entry partner): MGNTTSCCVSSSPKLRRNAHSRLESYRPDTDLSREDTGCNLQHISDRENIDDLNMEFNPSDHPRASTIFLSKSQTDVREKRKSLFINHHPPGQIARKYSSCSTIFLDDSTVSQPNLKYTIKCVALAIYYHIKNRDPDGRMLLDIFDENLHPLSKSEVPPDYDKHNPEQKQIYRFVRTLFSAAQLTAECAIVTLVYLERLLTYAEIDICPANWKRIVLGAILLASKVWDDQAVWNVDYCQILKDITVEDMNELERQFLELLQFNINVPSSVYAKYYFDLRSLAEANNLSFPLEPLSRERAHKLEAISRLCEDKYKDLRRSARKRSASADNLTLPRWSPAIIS
Chain of CDK17/Cyclin Y (Q00537 whole entry): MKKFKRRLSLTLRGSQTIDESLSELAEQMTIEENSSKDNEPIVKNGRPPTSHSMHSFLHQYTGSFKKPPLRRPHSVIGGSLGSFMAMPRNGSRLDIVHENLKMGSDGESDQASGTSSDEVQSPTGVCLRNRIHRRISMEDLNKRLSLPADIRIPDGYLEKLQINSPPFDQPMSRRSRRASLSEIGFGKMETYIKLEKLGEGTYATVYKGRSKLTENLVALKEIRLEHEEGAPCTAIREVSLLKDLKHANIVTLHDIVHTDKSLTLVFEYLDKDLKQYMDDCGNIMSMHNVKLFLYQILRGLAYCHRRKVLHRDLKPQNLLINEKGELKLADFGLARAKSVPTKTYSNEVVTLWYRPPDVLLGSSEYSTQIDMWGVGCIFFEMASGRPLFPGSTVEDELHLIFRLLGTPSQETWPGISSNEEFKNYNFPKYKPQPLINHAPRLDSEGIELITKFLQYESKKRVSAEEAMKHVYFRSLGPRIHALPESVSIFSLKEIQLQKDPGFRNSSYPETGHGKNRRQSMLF
Chain of CDK17/Cyclin Y (Q8ND76 whole entry partner): as the sequence (Q8ND76 whole entry partner) above
Chain of CDK11B/Cyclin L2 (P21127 1-782 isoform P21127-2): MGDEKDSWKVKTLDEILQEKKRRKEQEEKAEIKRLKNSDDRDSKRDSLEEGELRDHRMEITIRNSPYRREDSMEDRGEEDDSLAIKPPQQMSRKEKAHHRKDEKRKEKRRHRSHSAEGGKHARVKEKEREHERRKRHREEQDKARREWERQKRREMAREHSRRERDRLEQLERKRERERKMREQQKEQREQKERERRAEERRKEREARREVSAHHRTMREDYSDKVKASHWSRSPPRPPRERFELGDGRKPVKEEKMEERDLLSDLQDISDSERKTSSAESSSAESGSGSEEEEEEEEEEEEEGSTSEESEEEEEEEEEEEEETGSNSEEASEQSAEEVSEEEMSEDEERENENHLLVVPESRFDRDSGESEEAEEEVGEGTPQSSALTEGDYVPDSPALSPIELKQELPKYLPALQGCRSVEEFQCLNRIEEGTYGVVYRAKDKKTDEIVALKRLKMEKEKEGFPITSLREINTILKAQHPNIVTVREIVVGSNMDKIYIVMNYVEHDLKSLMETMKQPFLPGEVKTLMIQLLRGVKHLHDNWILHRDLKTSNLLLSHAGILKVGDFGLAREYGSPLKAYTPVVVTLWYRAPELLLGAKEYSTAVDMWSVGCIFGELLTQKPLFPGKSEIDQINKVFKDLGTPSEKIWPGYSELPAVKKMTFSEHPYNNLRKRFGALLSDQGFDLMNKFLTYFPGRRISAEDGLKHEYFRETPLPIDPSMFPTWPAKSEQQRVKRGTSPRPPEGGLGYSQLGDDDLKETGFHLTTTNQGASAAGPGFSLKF

CN(C)C/C=C/C(=O)Nc1ccc(C(=O)N2CCC[C@@H](Nc3ncc(Cl)c(-c4c[nH]c5ccccc45)n3)C2)cc1 [THZ531]
inhibition at 10 µM (CDK1/Cyclin E1; average of experiments): 61.4%
inhibition at 10 µM (CDK1/Cyclin E1; independent experiment 1): 48.6%
inhibition at 10 µM (CDK1/Cyclin E1; independent experiment 2): 74.1%
inhibition at 10 µM (CDK2/Cyclin E1; average of experiments): 52.7%
inhibition at 10 µM (CDK2/Cyclin E1; independent experiment 1): 46.1%
inhibition at 10 µM (CDK2/Cyclin E1; independent experiment 2): 59.3%
inhibition at 10 µM (CDK3/Cyclin E1; average of experiments): 61.1%
inhibition at 10 µM (CDK3/Cyclin E1; independent experiment 1): 57.1%
inhibition at 10 µM (CDK3/Cyclin E1; independent experiment 2): 65.2%
inhibition at 10 µM (CDK4/Cyclin D1; average of experiments): 54.6%
inhibition at 10 µM (CDK4/Cyclin D1; independent experiment 1): 47.7%
inhibition at 10 µM (CDK4/Cyclin D1; independent experiment 2): 61.5%
inhibition at 10 µM (CDK5/CDK5R1; average of experiments): 45.3%
inhibition at 10 µM (CDK5/CDK5R1; independent experiment 1): 30.8%
inhibition at 10 µM (CDK5/CDK5R1; independent experiment 2): 59.9%
inhibition at 10 µM (CDK7; average of experiments): 78.1%
inhibition at 10 µM (CDK7; independent experiment 1): 74.8%
inhibition at 10 µM (CDK7; independent experiment 2): 81.5%
inhibition at 10 µM (CDK8/Cyclin C; average of experiments): 41%
inhibition at 10 µM (CDK8/Cyclin C; independent experiment 1): 30.9%
inhibition at 10 µM (CDK8/Cyclin C; independent experiment 2): 51.2%
inhibition at 10 µM (CDK9/Cyclin K; average of experiments): 81.1%
inhibition at 10 µM (CDK9/Cyclin K; independent experiment 1): 78.5%
inhibition at 10 µM (CDK9/Cyclin K; independent experiment 2): 83.8%
inhibition at 10 µM (CDK11A/Cyclin L2; average of experiments): 46.9%
inhibition at 10 µM (CDK11A/Cyclin L2; independent experiment 1): 27.8%
inhibition at 10 µM (CDK11A/Cyclin L2; independent experiment 2): 65.9%
inhibition at 10 µM (CDK11B/Cyclin L2; average of experiments): 32.4%
inhibition at 10 µM (CDK11B/Cyclin L2; independent experiment 1): 30%
inhibition at 10 µM (CDK11B/Cyclin L2; independent experiment 2): 34.7%
inhibition at 10 µM (CDK12/Cyclin K; average of experiments): 65.1%
inhibition at 10 µM (CDK12/Cyclin K; independent experiment 1): 75.9%
inhibition at 10 µM (CDK12/Cyclin K; independent experiment 2): 54.3%
IC50 (CDK12/Cyclin K; independent experiment 1, read-out: CDK12/K IC50): 540 nM
IC50 (CDK12/Cyclin K; independent experiment 2, read-out: CDK12/K IC50): 1000 nM
IC50 (CDK12/Cyclin K; live HEK-293, 2 h, mean ± S.E.M. (n=3) or mean (n=2), read-out: IC50 for CDK/cyclin complexes, CDK12/K): 770 nM
IC50 (CDK12/Cyclin K; live HEK-293, read-out: CDK12 engagement potency): < 1000 nM
CDK12 occupancy at 10 µM (CDK12/Cyclin K; primary screen, live HEK-293): occupied
receptor occupancy at 10 µM (CDK12/Cyclin K; read-out: CDK12 occupancy at 10 µM): ~50%
inhibition at 10 µM (CDK13/Cyclin K; average of experiments): 53.1%
inhibition at 10 µM (CDK13/Cyclin K; independent experiment 1): 48.6%
inhibition at 10 µM (CDK13/Cyclin K; independent experiment 2): 57.6%
IC50 (CDK13/Cyclin K; live HEK-293, response to reviewers, read-out: CDK13 IC50 (follow up)): ~2000 nM
CDK13 occupancy at 10 µM (CDK13/Cyclin K; primary screen, live HEK-293): occupied
receptor occupancy at 10 µM (CDK13/Cyclin K; primary screen, live HEK-293): ~50%
inhibition at 10 µM (CDK14/Cyclin Y; average of experiments): 41.8%
inhibition at 10 µM (CDK14/Cyclin Y; independent experiment 1): 22.4%
inhibition at 10 µM (CDK14/Cyclin Y; independent experiment 2): 61.2%
inhibition at 10 µM (CDK15/Cyclin Y; average of experiments): 80.5%
inhibition at 10 µM (CDK15/Cyclin Y; independent experiment 1): 75.6%
inhibition at 10 µM (CDK15/Cyclin Y; independent experiment 2): 85.5%
inhibition at 10 µM (CDK16/Cyclin Y; independent experiment 1): 75.1%
inhibition at 10 µM (CDK16/Cyclin Y; independent experiment 2): 49.9%
inhibition at 10 µM (CDK17/Cyclin Y; average of experiments): 63%
inhibition at 10 µM (CDK17/Cyclin Y; independent experiment 1): 73.4%
inhibition at 10 µM (CDK17/Cyclin Y; independent experiment 2): 52.6%
inhibition at 10 µM (CDK20/Cyclin H; independent experiment 1): 30.9%
inhibition at 10 µM (CDK20/Cyclin H; independent experiment 2): 52.4%
inhibition at 10 µM (CDK19/Cyclin C; average of experiments): 55.3%
inhibition at 10 µM (CDK19/Cyclin C; independent experiment 1): 58.1%
inhibition at 10 µM (CDK19/Cyclin C; independent experiment 2): 52.6%
inhibition at 10 µM (CDK10/Cyclin L2; average of experiments): 51%
inhibition at 10 µM (CDK10/Cyclin L2; independent experiment 1): 41.2%
inhibition at 10 µM (CDK10/Cyclin L2; independent experiment 2): 60.7%
